# Measurements reported in ChEMBL document CHEMBL3997795, “Conjugates of 2,4-Dihydroxybenzoate and Salicylhydroxamate and Lipocations Display Potent Antiparasite Effects by Efficiently Targeting the Trypanosoma brucei and Trypanosoma congolense Mitochondrion” (J Med Chem, 2017).
# Calls of active or inactive are those of the source. The calls are words filed in the database; no cut-off is given here.
# Columns and labels:
# [1] = test system: Trypanosoma brucei brucei; experiment: Anti-parasitic activity against bloodstream trypomastigote stage of wild-type Trypanosoma brucei brucei Lister 427 after 48 hrs by alamar blue based fluorescence assay; type: functional; conditions: Lister 427, 48 h
# [2] = test system: Trypanosoma brucei brucei; experiment: Anti-parasitic activity against diminazene, pentamidine and melaminophenyl arsenical-resistant bloodstream trypomastigote stage of Trypanosoma brucei brucei B48 harboring TbAT1 deletion mutant after 48 hrs by alamar blue based fluorescence assay; type: functional; conditions: B48, 48 h
# [3] = test system: Trypanosoma brucei brucei; experiment: Trypanocidal activity against bloodstream trypomastigote stage of wild-type Trypanosoma brucei brucei Lister 427 assessed as inhibition of respiration in presence of glycerol; type: functional
# [4] = test system: Trypanosoma brucei brucei; experiment: Resistant factor, ratio of EC50 for bloodstream trypomastigote stage of wild-type Trypanosoma brucei brucei Lister 427 assessed as inhibition of respiration in presence of glycerol to EC50 for bloodstream trypomastigote stage of wild-type Trypanosoma brucei brucei Lister 427 assessed as inhibition of respiration in absence of glycerol; type: functional
# [5] = Resistance factor, ratio of EC50 for diminazene, pentamidine and melaminophenyl arsenical-resistant bloodstream trypomastigote stage of Trypanosoma brucei brucei B48 harboring TbAT1 deletion mutant to EC50 for bloodstream trypomastigote stage of wild-type Trypanosoma brucei brucei Lister 427; type: functional
# Trypanosoma congolense = experiment: Anti-parasitic activity against bloodstream form of Trypanosoma congolense IL3000 after 48 hrs by alamar blue based fluorescence assay; type: functional; conditions: IL3000, 48 h
# [6] = Cytostatic activity against HEK293T cells after 30 hrs by resazurin based fluorimetric assay; type: cell-based, HEK-293T; conditions: human
# [7] = Cytotoxicity against HEK cells up to 50 uM after 30 hrs by resazurin based fluorimetric assay; type: cell-based; conditions: human
# [8] = Selectivity index, ratio of CC50 for HEK293T cells to EC50 for bloodstream trypomastigote stage of wild-type Trypanosoma brucei brucei Lister 427; type: toxicity; conditions: human, read-out: Ratio CC50/EC50
# [9] = Selectivity index, ratio of CC50 for HEK293T cells to EC50 for bloodstream form of Trypanosoma congolense IL3000; type: toxicity; conditions: human, read-out: Ratio CC50/EC50
# [10] = Cytotoxicity against HFF cells after 30 hrs by resazurin based fluorimetric assay; type: cell-based; conditions: human
# [11] = Selectivity index, ratio of CC50 for HFF cells to EC50 for bloodstream trypomastigote stage of wild-type Trypanosoma brucei brucei Lister 427; type: toxicity; conditions: human, read-out: Ratio CC50/EC50
# [12] = Selectivity index, ratio of CC50 for HFF cells to EC50 for bloodstream form of Trypanosoma congolense IL3000; type: toxicity; conditions: human, read-out: Ratio CC50/EC50
# [13] = test system: Trypanosoma brucei brucei; experiment: Induction of plasma membrane disruption in bloodstream trypomastigote stage of wild-type Trypanosoma brucei brucei Lister 427 assessed as increase in propidium iodide influx after 6 hrs by fluorimetric assay; type: functional
# [14] = test system: Trypanosoma brucei brucei; experiment: Trypanocidal activity against bloodstream trypomastigote stage of wild-type Trypanosoma brucei brucei Lister 427 at 3 times EC50 after 4 hrs by propidium iodide staining based fluorimetric assay; type: functional
# [15] = Inhibition of recombinant MTS-deficient N-terminal His6-tagged and SUMO-tagged Trypanosoma alternative oxidase expressed in Escherichia coli FN102 using ubiquinol-1 as substrate
# [16] = test system: Trypanosoma brucei brucei; experiment: Induction of mitochondrial membrane hyperpolarization in bloodstream trypomastigote stage of wild-type Trypanosoma brucei brucei Lister 427 at 10 uM after 10 mins by TMRE dye based flow cytometry; type: functional
# [17] = test system: Trypanosoma brucei brucei; experiment: Induction of mitochondrial membrane depolarization in bloodstream trypomastigote stage of wild-type Trypanosoma brucei brucei Lister 427 at 100 nM after 10 mins by TMRE dye based flow cytometry; type: functional
# [18] = test system: Trypanosoma brucei brucei; experiment: Trypanocidal activity against bloodstream trypomastigote stage of wild-type Trypanosoma brucei brucei Lister 427 assessed as inhibition of respiration at 10 uM in presence of glycerol; type: functional
# [19] = test system: Trypanosoma brucei brucei; experiment: Trypanocidal activity against bloodstream trypomastigote stage of wild-type Trypanosoma brucei brucei Lister 427 assessed as inhibition of respiration at 10 uM; type: functional
# [20] = test system: Trypanosoma brucei brucei; experiment: Reduction in oxygen consumption in bloodstream trypomastigote stage of wild-type Trypanosoma brucei brucei Lister 427 measured immediately for 120 mins by fluorescent oxygen reporter probe based fluorimetric assay; type: functional
# [21] = test system: Trypanosoma brucei brucei; experiment: Induction of mitochondrial membrane depolarization in bloodstream trypomastigote stage of wild-type Trypanosoma brucei brucei Lister 427 at 0.005 uM after 10 mins by TMRE dye based flow cytometry; type: functional
# [22] = test system: Trypanosoma brucei brucei; experiment: Cell cycle arrest in bloodstream trypomastigote stage of wild-type Trypanosoma brucei brucei Lister 427 assessed as accumulation at G1 phase at 0.005 uM after 24 hrs by propidium iodide staining-based flow cytometry; type: functional
# [23] = test system: Trypanosoma brucei brucei; experiment: Cell cycle arrest in bloodstream trypomastigote stage of wild-type Trypanosoma brucei brucei Lister 427 assessed as accumulation at S phase at 0.005 uM after 24 hrs by propidium iodide staining-based flow cytometry; type: functional
# [24] = test system: Trypanosoma brucei brucei; experiment: Cell cycle arrest in bloodstream trypomastigote stage of wild-type Trypanosoma brucei brucei Lister 427 assessed as accumulation at G2 phase at 0.005 uM after 24 hrs by propidium iodide staining-based flow cytometry; type: functional
# [25] = test system: Trypanosoma brucei brucei; experiment: Anti-parasitic activity against bloodstream trypomastigote stage of Trypanosoma brucei brucei Lister 427 over-expressing TAO relative to bloodstream trypomastigote stage of wild-type Trypanosoma brucei brucei Lister 427; type: functional
# [26] = test system: Trypanosoma brucei brucei; experiment: Reduction in oxygen consumption in bloodstream trypomastigote stage of wild-type Trypanosoma brucei brucei Lister 427 at 50 uM measured immediately for 120 mins by fluorescent oxygen reporter probe based fluorimetric assay; type: functional
SMILES,EC50 [1] [nM],EC50 [2] [nM],EC50 [3] [nM],Ratio EC50 [4],Ratio EC50 [5],EC50 (Trypanosoma congolense) [nM],CC50 at 30 h [6] [nM],Activity [7],selectivity ratio [8],selectivity ratio [9],also measured
N=C(N)c1ccc(OCCCCCOc2ccc(C(=N)N)cc2)cc1 [PENTAMIDINE],2.8,940,4,1.32,98,,,,,,
O=C(NO)c1ccc(OCCCCCCCC[P+](c2ccccc2)(c2ccccc2)c2ccccc2)cc1O.[Br-],400,,,,,27200,> 400000,Non-Toxic,> 1000,> 14.7,
O=C(OCCCCCCCCCC[P+](c1ccccc1)(c1ccccc1)c1ccccc1)c1ccc(O)cc1O.[Br-],1.3,1.1,2,1.26,0.86,180,2330,Non-Toxic,1770,13.2,
O=C(OCCCCCCCCCCCC[P+](c1ccccc1)(c1ccccc1)c1ccccc1)c1ccc(O)cc1O.[Br-],1.2,1.2,1.2,1.01,0.96,42,1650,Non-Toxic,1330,,
O=C(OCCCCCCCC[P+](c1ccccc1)(c1ccccc1)c1ccccc1)c1ccc(O)cc1O.[Br-],73,68,84,1.16,0.94,4300,7730,Non-Toxic,106,1.8,
O=C(OCCCCCCCCCCCCCC[n+]1cccc2ccccc21)c1ccc(O)cc1O.[Br-],100,125,78,0.75,1.21,3800,,,,,CC50 at 30 h [10]: 172000 nM; selectivity ratio [11]: 1660; selectivity ratio [12]: 45.3; Activity [13]: Dose-dependent effect; Activity [14]: Active; IC50 [15]: 1360 nM
O=C(OCCCCCCCCCCCCCCCC[n+]1cccc2ccccc21)c1ccc(O)cc1O.[Br-],140,140,89,0.62,1.01,3000,,,,,CC50 at 30 h [10]: 345000 nM; selectivity ratio [11]: 2410; selectivity ratio [12]: 115; IC50 [15]: > 5000 nM
Cc1c(C)c2c(c(C)c1O)CCC(C)(COc1ccc(CC3SC(=O)NC3=O)cc1)O2 (stereo not given),,,,,,,,,,,Activity [16]: Active
O=C(NO)c1ccc(OCCCCCCCCCC[P+](c2ccccc2)(c2ccccc2)c2ccccc2)cc1O.[Br-],200,,,,,,> 400000,Non-Toxic,> 2040,,
O=COCCCCCCCCCCOC(=O)c1ccc(O)cc1O,31800,22100,,,0.69,> 100000,> 400000,Non-Toxic,> 12,,
CC(C)[C@@H]1NC(=O)[C@H](C)OC(=O)[C@@H](C(C)C)NC(=O)[C@@H](C(C)C)OC(=O)[C@H](C(C)C)NC(=O)[C@H](C)OC(=O)[C@@H](C(C)C)NC(=O)[C@@H](C(C)C)OC(=O)[C@H](C(C)C)NC(=O)[C@H](C)OC(=O)[C@@H](C(C)C)NC(=O)[C@@H](C(C)C)OC1=O,,,,,,,,,,,Activity [17]: Active
BrCCCCCCCCCC[P+](c1ccccc1)(c1ccccc1)c1ccccc1.[Br-],1.8,1.2,,,0.7,950,6010,Non-Toxic,3340,6.3,inhibition [18]: inactive; inhibition [19]: inactive
"O=C(O)c1ccc(O)cc1O [2,4-DIHYDROXYBENZOIC ACID]",17100,,19000,1.11,,,,,,,IC50 [15]: 116000 nM
O=C(OCCCCCCCCC[P+](c1ccccc1)(c1ccccc1)c1ccccc1)c1ccc(O)cc1O.[Br-],5.9,7.4,5,0.88,1.24,410,4680,Non-Toxic,789,11.5,
O=C(NO)c1ccc(OCCCCCCCCCCCC[P+](c2ccccc2)(c2ccccc2)c2ccccc2)cc1O.[Br-],140,,158,1.13,,46400,> 400000,Non-Toxic,> 2860,> 8.6,
O=C(OCCCCCCCCCCCCCCCC[P+](c1ccccc1)(c1ccccc1)c1ccccc1)c1ccc(O)cc1O.[Br-],9,8,5,0.6,0.91,122,,,,,CC50 at 30 h [10]: 249000 nM; selectivity ratio [11]: 27700; selectivity ratio [12]: 2040; IC50 [15]: > 5000 nM
N=C(N)c1ccc(/N=N/Nc2ccc(C(=N)N)cc2)cc1 [DIMINAZENE],65,780,63,0.97,,151,,,,,
O=C(OCCCCCCCCCCCCBr)c1ccc(O)cc1O,14500,14900,,,1.03,52100,> 400000,Non-Toxic,> 28,> 7.7,
O=C(OCCCCCCCCCCCC[n+]1cccc2ccccc21)c1ccc(O)cc1O.[Br-],330,347,230,0.69,1.05,7000,,,,,CC50 at 30 h [10]: 202000 nM; selectivity ratio [11]: 609; selectivity ratio [12]: 28.7; IC50 [15]: > 5000 nM
O=C(OCCCCCCCCCCCCCCCCBr)c1ccc(O)cc1O,45700,49000,,,1.07,> 100000,> 400000,Non-Toxic,> 9,,
O=C(OCCCCCCCCCCCCCC[P+](c1ccccc1)(c1ccccc1)c1ccccc1)c1ccc(O)cc1O.[Br-],1.5,1.2,0.8,0.55,0.78,61,,,,,Activity [20]: Dose-dependent effect; Activity [21]: Active; CC50 at 30 h [10]: 59700 nM; selectivity ratio [11]: 23400; selectivity ratio [12]: 982; Activity [13]: Dose-dependent effect; Activity [14]: Active; Activity [22]: Active; Activity [23]: Active; Activity [24]: Active; IC50 [15]: 1460 nM; fold change (FC) [25]: 2.6
O=C(NO)c1ccccc1O [SALICYLHYDROXAMIC ACID],38700,,7000,,,,,,,,Activity [20]: Dose-dependent effect; Activity [26]: Active; fold change (FC) [25]: 1.6
